Experiments:
[1] = tested on: P388 cells (mouse leukemia cells); assay: in vitro antitumor activity test, P388 cells, XTT colorimetry; assay type: cell-based; details: cultured 72 hours
Method in brief: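 Cells from DBA/2 mouse ascites, in RPMI 1640 with 10% FBS and 25 mM HEPES, seeded from a 4×10^4 cells/ml suspension. Equal volume added of compound solutions prepared at 2.0×10^−9 to 2.0×10^−4 M (pre-mixing). After 72 h at 37° C, 5% CO2, growth read by XTT; GI50 (μM) is the concentration giving 50% growth inhibition.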

[2] = tested on: PC-3 cells (human prostate cancer cells); assay: in vitro antitumor activity test, PC-3 cells, XTT colorimetry; assay type: cell-based; details: PC-3 human prostate cancer cells, cultured 72 hours
Method in brief: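 PC-3 human prostate cancer cells, seeded at 2×10^4 cells/ml and allowed to adhere for 24 h, were exposed 72 h at 37° C, 5% CO2 to compound diluted in RPMI 1640 with 10% FBS to 2.0×10^−9 to 2.0×10^−4 M (pre-addition solutions). Growth was measured by XTT colorimetry and GI50 (μM) calculated.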

[3] = tested on: B16F10 cells (mouse melanoma [malignant melanoma] cells); assay: in vitro antitumor activity test, B16F10 cells, XTT colorimetry; assay type: cell-based; details: B16-F10, cultured 72 hours
Method in brief: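 B16F10 mouse melanoma cells were seeded from a 1×10^4 cells/ml suspension and allowed to adhere for 24 h. Compounds in DMSO were diluted in RPMI 1640 with 10% FBS to 2.0×10^−9 to 2.0×10^−4 M and incubated 72 h at 37° C, 5% CO2. XTT colorimetry gave GI50 (μM).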

[4] = tested on: WiDr cells (human colon cancer cells); assay: in vitro antitumor activity test, WiDr cells, XTT colorimetry; assay type: cell-based; details: cultured 72 hours
Method in brief: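 Human colon cancer cells in MEM/10% FBS were seeded 3×10^4 cells/ml and allowed to adhere for 24 h, then exposed to compounds prepared at 2.0×10^−9 to 2.0×10^−4 M in RPMI 1640 for 72 h at 37° C, 5% CO2. Growth was read by XTT colorimetry and GI50 (μM) calculated.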

[5] = tested on: A549 cells (human lung cancer cells); assay: in vitro antitumor activity test, A549 cells, XTT colorimetry; assay type: cell-based; details: cultured 72 hours
Method in brief: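 Cells seeded at 2×10^4 cells/ml in MEM + 10% FBS, 25 mM HEPES, kanamycin, allowed to adhere 24 h, then exposed to compounds (DMSO stocks diluted in RPMI 1640; prepared at 2.0×10^−9 to 2.0×10^−4 M) for 72 h at 37 °C, 5% CO2. Growth inhibition read by XTT colorimetry; GI50 (μM) calculated.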

[6] = tested on: MCF-7 cells (human breast cancer cells); assay: antitumor activity against breast cancer cells, cell counting; assay type: cell-based; details: MCF7; MCF-7 human breast cancer cells, cultured 72 hours, cell counter
Experimental: MCF-7 cells (human breast cancer cells) subcultured in a culture medium composed of a MEM medium added with 10% fetal bovine serum, 25 mM HEPES and 0.1 mg/ml kanamycin under the conditions of 37° C. and 5% carbon dioxide gas were made into single floating cells by treating with trypsin/EDTA, and a single cell suspension of 4×10^4 cells per 1 ml was prepared using the MEM medium (added with 10% fetal bovine serum, 25 mM HEPES and 0.1 mg/ml kanamycin). After dissolving the test substances (Compound 2 and Compound 7) in DMSO, they were diluted with the MEM medium (added with 10% fetal bovine serum, 25 mM HEPES and 0.1 mg/ml kanamycin) and prepared so that the concentrations were 6.4×10^−8 to 2.0×10^−5 M.
0.1 ml of the cell suspension was placed into each well of a 96-well microplate, cultured for 24 hours to allow the cells to adhere to the microplate, then 0.1 ml of the sample solutions were added, and cultured for 72 hours at 37° C. in 5% carbon dioxide gas.
Afterwards, the cells in each well were made single floating cells by treating with trypsin/EDTA, and the number of cells was counted using a cell counter to obtain the growth inhibition rate at various sample concentrations and calculate the concentrations at which growth was inhibited by 50% (GI50 values [μM]).

human lung cancer A549 = assay: in vivo antitumor activity, nude mice transplanted with human lung cancer A549; parameters: species or system BALB/c-nu/nu mice; details: 400 mg/kg orally daily day 0 to day 13 (12 times), tumor volume at day 14
Experimental: (§1) Tumor tissue fragments of human lung cancer A549 (3 mm×3 mm×3 mm) were transplanted subcutaneously into the chests of six-week-old female BALB/c-nu/nu mice, and sample administration started when the tumor volume reached at least approximately 100 mm^3 (day 0). Compound 2 and Compound 7 were suspended in a 1% hydroxypropylcellulose (HPC [L]) solution using an agate mortar. 400 mg/kg of Compound 2 was orally administered daily from day 0 to day 13 (excluding day 3 and day 10, a total of 12 times). 400 mg/kg of Compound 7 was intraperitoneally administered daily from day 0 to day 13 (excluding day 4 and day 11, a total of 12 times). Tumor diameters were measured to calculate tumor volume (½×long diameter×short diameter×short diameter), and the tumor volume after 14 days (at day 14) from the start of sample administration was divided by the tumor volume at the start of the administration to calculate relative tumor growth rate. The percentage of the relative tumor growth rate of the control group with respect to the relative tumor growth rate of the group administered with Compound 2 or Compound 7 was taken as T/C (%).

[7] = tested on: human prostate cancer PC-3; assay: in vivo antitumor activity, nude mice transplanted with human prostate cancer PC-3; parameters: species or system BALB/c-nu/nu mice; details: PC-3 in nude mice, 400 mg/kg orally daily day 0 to day 13 (12 times), tumor volume at day 14
Experimental: as §1, with “prostate” for “lung”, “PC-3” for “A549”, “was” for “and Compound 7 were”, “HPC (L)” for “hydroxypropylcellulose (HPC [L])”, “10,” for “10, a total of 12 times). 400 mg/kg of Compound 7 was intraperitoneally administered daily from day 0 to day 13 (excluding day 4 and day 11,”, “2” for “2 or Compound 7”

human colon cancer WiDr = assay: in vivo antitumor activity, nude mice transplanted with human colon cancer WiDr; parameters: species or system BALB/c-nu/nu mice; details: 400 mg/kg orally daily day 0 to day 13 (12 times), tumor volume at day 14
Experimental: as §1, with “colon” for “lung”, “WiDr” for “A549”, “was” for “and Compound 7 were”, “HPC (L)” for “hydroxypropylcellulose (HPC [L])”, “10,” for “10, a total of 12 times). 400 mg/kg of Compound 7 was intraperitoneally administered daily from day 0 to day 13 (excluding day 4 and day 11,”, “2” for “2 or Compound 7”

GI50 [1]: 110 nM
GI50 [2]: 100 nM
GI50 [3]: 300 nM
GI50 [4]: 300 nM
GI50 [5]: 140 nM
melting point: 139 °C
Compound: CCc1nc2c(N3CCOCC3)nc(SCc3ccc(OC)c(N)c3)nc2n1C [Compound 2, 2-(3-amino-4-methoxybenzylsulfanyl)-8-ethyl-9-methyl-6-morpholino-9H-purine]
GI50 [6]: 110 nM
T/C (human lung cancer A549): 73.1%
T/C [7]: 32.2%
T/C (human colon cancer WiDr): 62.1%

From patent US9132130B2, “Purine derivative and antitumor agent using same” (ZENYAKU KOGYO KABUSHIKI KAISHA, priority 2009, dated 2015)
